Test results from US20250302866A1, “POLYMER AGENTS FOR CARDIOPULMONARY RESUSCITATION” (VIRGINIA COMMONWEALTH UNIVERSITY, priority 2019, published 2025).

Legend:
[1] = test system: rat model of cardiac arrest and cardiopulmonary resuscitation; test: Duration of survival after resuscitation; format: in vivo, Sprague-Dawley rats; settings: 6 resuscitated rats in each group
[2] = test system: patients with out-of-hospital cardiac arrest; settings: prehospital epinephrine use; cited from earlier work
[3] = test system: rat model of cardiac arrest and cardiopulmonary resuscitation; test: Coronary perfusion pressure, defibrillations and arrhythmia in a rat model of cardiac arrest and CPR; format: in vivo, Sprague-Dawley rats; settings: mean±SD
Procedure: (§1) Male Sprague-Dawley rats weighing 450-550 g were utilized in this study. After induction of anesthesia with inhalation of CO2 for about 30 seconds, the animals were anesthetized by intraperitoneal injection of pentobarbital (45 mg/kg). Additional doses (10 mg/kg) were administered when required to maintain anesthesia. After no response to stimuli, the animals were shaved. The trachea was orally intubated with a 14-G cannula mounted on a blunt needle (Abbocath-T; Abbott Hospital Products Division, North Chicago, IL, USA) with a 145-degree angled tip. End-tidal CO2 was continuously monitored with a side-stream infrared CO2 analyzer (Capstar-100 Carbon Dioxide Analyzer; CWE, Ardmore, PA) interposed between the tracheal cannula and the ventilator. A conventional lead II EKG was continuously monitored. Through the left external jugular vein, a PE-50 catheter (Becton Dickinson, Sparks, MD, USA) was advanced into the right atrium for measurement of right atrial pressures. A 3-F catheter (Model C-PMS-301J; Cook Critical Care, Bloomington, IN, USA) was advanced through the right external jugular vein into the right ventricle. For blood pressure measurements within the descending aorta and PEG-20k administration, PE-50 catheters were advanced into the descending aorta from the left femoral artery and the right femoral artery respectively. […]

[4] = test system: patients with SCA; settings: cited from earlier work
[5] = test system: rat model of cardiac arrest and cardiopulmonary resuscitation; test: Post-resuscitation myocardial function by echocardiography (CO, EF, MPI); format: in vivo, Sprague-Dawley rats; settings: 2, 4, and 6 hours after ROSC; PEG-20k vs other 3 groups, epinephrine vs saline placebo and saline-A; p<0.05; FIG. 2
Procedure: as §1

[6] = test system: rat model of cardiac arrest and cardiopulmonary resuscitation; test: Buccal microcirculation (MFI, PVD) by side-stream dark-field imaging; format: in vivo, Sprague-Dawley rats; settings: 1, 3, and 5 hours after ROSC; PEG-20k vs other 3 groups; p<0.05; FIG. 3
Procedure: as §1

In the case of `CNC[C@H](O)c1ccc(O)c(O)c1` [Epinephrine], the “Rats survived more than 24 hours” value [1] is listed as “one”, the “Chance of ROSC before hospital arrival” value [2] is listed as “increased chance of ROSC” and the “Chance of survival and good functional outcomes 1 month after the event” value [2] is listed as “decreased chance of survival and good functional outcomes”. The Arrhythmia duration ([3]; after resuscitation) was 14.00 ± 5.35, the Number of defibrillations ([3]; defibrillations required for conversion to viable rhythm and ROSC, drug infused for 3 minutes after 4 minutes of precordial compression) was 5.50 ± 2.88 and the “Rate of ROSC vs placebo” value [4] was “significantly higher rate of ROSC than placebo”. For the same compound, the “Rate of survival with a favorable neurologic outcome” value ([4]; vs placebo group) was “as low as the rate in the placebo group”, the “PR myocardial function (CO, EF, MPI)” value [5] was “increased the severity of PR myocardial dysfunction” and the “Buccal microcirculation PVD and MFI values” [6] was “significantly decreased”.
